Results published in patent US10806726B2, “Methods of using indazole-3-carb oxamides and their use as Wnt/B-catenin signaling pathway inhibitors” (Samumed, LLC, priority 2016, dated 2020).

Assays:
[1] = test system: collagenase-induced tendonitis of the Achilles tendon in Sprague Dawley rats; assay: Rat Tendinopathy Model (1), collagenase-induced, tendon histology scoring; assay type: in vivo; details: for tendon histology score: topical once daily 21 days, total score of 20
Experimental: Fifty (50 μl) of Collagenase Type IA (10 mg/ml in PBS, pH 7.4, approximately 469 units/mg) (Catalog # C5138, Sigma, St. Louis, Mo.) was injected into the Achilles tendon of both ankles near the osteotendinous junction of male Sprague Dawley CD® IGS rats (CRL, Inc.), using insulin syringes with 28.5 G needle.
Rats were divided into […] with 5 animals per group: Group 1 (sham injection); Group 2 (Collagenase-Vehicle); Group 3 (Collagenase-compound 175 10 mg/mL with 1% BA) and Group 4 (Collagenase-COMPOUND 175 10 mg/mL with 0.5% Tween 80). […] All rats were periodically observed for any pain, illnesses or abnormalities. At various time points, blood was collected for plasma in lithium heparin coated tubes by saphenous vein bleeding. For histology, rats were euthanized using isoflurane, tendons were isolated (n=6 tendons/group), fixed in 10% buffered formalin (Catalog # SF93-4, Fisher, Pittsburgh Pa.) and H & E histology staining was performed at a secondary site (Pacific Pathology, San Diego, Calif.). For biochemical analysis, tendons were isolated (n=4 tendons/group), flash frozen in liquid nitrogen and then stored at −80° C. for subsequent biochemical analysis (not reported).
There is biological variability in response to collagenase when injected directly into the tendons. […] Slides were viewed under an upright light microscope (EVOS AMEX-1200) at a 10× magnification and scored blinded using a 1-4 scoring system of severity: 1—representing severe damage and 4—representing normal tendon, for Linearity of the fiber structure, Shape of the tendon cells, Density of the tendon cells, Inflammation, and Hemorrhage for a total score of twenty (20) using a modification of that described previously (Urdzikova et al., 2014—see Table 3). […]
For tendon scoring, each section was analyzed following a 1-4 point scoring system as previously described (Urdzikova et al., 2014) with the exclusion of one variable, the Thickness of the epitenon, due to the difficulty in discerning the epitenon layer in histology sections. […]

[2] = test system: Wnt-responsive promoter driving firefly luciferase in SW480 cells; assay: Wnt reporter (SP5 promoter-luciferase) screening assay in SW480 cells; assay type: cell-based; details: Homo sapiens, 24-40 h, top concentration ten micromolar
In short: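 SW480 (APC-mutant colon) cells stably transduced with lentiviral SP5-promoter (eight TCF/LEF sites) firefly luciferase, ~10,000 cells/well. Signals normalized to DMSO controls for EC50 fitting.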

[3] = test system: primary human mesenchymal stem cells (hMSCs); assay: Tenocyte Differentiation Assay, hMSCs, 7 days (Example 11); assay type: cell-based; details: 168 h, 750-5.8 nM, read-out: EC50, induction of SCXA, TenacinC and Tenomodulin expression
Experimental: Primary human mesenchymal stem cells (hMSCs; Lonza Inc) were cultured in MSCGM™ Mesenchymal Stem Cell Growth Medium, with 10% FBS (Lonza) 10% fetal bovine serum (FBS) (Hyclone) at 37° C., 5% CO2. hMSCs were used between passage 2 and 6 and were never allowed to reach confluence to maintain a naive state.
Tenocyte Differentiation Assay. For tenocyte differentiation, hMSCs were plated in 384-well plates at 1×10^4 cells/well in Dulbecco's modified Eagle's medium (DMEM, ThermoFisher) with 1% fetal bovine serum (FBS) (Hyclone). Cells were then treated with DMSO (vehicle control) or compound 175 at 750 nM top concentration and 2-fold dilution up to 8 concentrations ([…], 166.6, 83.3, 41.7, 21.7, 10.8 and 5.8 nM) and incubated for 7 days at 37° C. A combination of BMP and FGF ([…], Peprotech, Inc.) was used as a positive control. […] Plates were imaged using a CX5 high-content imager (ThermoFisher) and the % of cells stained positive were determined using a cell scoring algorithm (ThermoFisher). Data was plotted and EC50 was calculated using Prism 5 (GraphPad Software Inc, La Jolla, Calif., USA). […]

EC50 [2]: 25 nM
EC50 [3]: 139 to 189 nM
Structure (SMILES): COc1ccc(NC(=O)c2n[nH]c3ccc(-c4cncc(CN5CCCCC5)c4)cc23)cn1 [compound 175, N-(6-Methoxypyridin-3-yl)-5-(5-(piperidin-1-ylmethyl)pyridin-3-yl)-1H-indazole-3-carboxamide]
blinded histology scoring of tendon injury and inflammation vs vehicle ([1]; 10 mg/ml with or without BA preservative, topical 21 days): significantly ameliorated collagenase-induced tendinopathy
tendon histology score ([1]; Group 3, 10 mg/mL with BA): 14.0 (±0.217)
tendon histology score ([1]; Group 4, 10 mg/mL without BA (0.5% Tween 80)): 12.2 (±0.284)
